{"source": "patent US7754896B2", "about": "“Indol-alanine derivatives as selective S1P4-agonists” (Novartis AG, priority 2004, dated 2010)", "key": {"CHO": {"system": "CHO", "test": "Calcium mobilization assay, parental CHO cells", "assay_type": "cell-based", "details": "Cricetulus griseus", "description": "CHO cells are plated in black Costar plate (96 or 384 well, 50,000 cells or 12,500 cells, respectively) in a MEM with FCS and cultured for 20-24 h at 37° C. in a CO2 incubator. After the removal of the culture medium cells are incubated in HBSS medium containing 2 μM Fluo4AM (Molecular Probes, Cat. No, F-1241; 1 mg/ml stock in DMSO), 5 mM probenicid for 1 h at 37° C., rinsed with HBSS buffer, 2.5 mM probenicid and overlaid with the same medium (75 μl for 96-well plates, 50 μl for 384 plates). The plates are transferred to the FLIPR. After measuring the baseline for 40 sec, the agonist in HBSS is added and the fluorescence is measured at intervals of 2 sec for 3 to 5 min. In some cases the cells are pre-treated for 5 h with 50 ng/ml pertussis toxin (Sigma, Cat Nr P2980). […]\n(§1) The compounds mentioned in this application are tested for specificity, e.g. the activity they have in the parental cell line prior transformation with the S1P4 cDNA and for selectivity on CHO cells lines transformed with the S1P1, S1P2, S1P3, and S1P5. […] For example, S1P4 specific and selective compounds may have an EC50 (apparent EC50) measured at S1P4 that is 10×, preferably 100× lower that that measured in wild type CHO cells or In cell expressing any of the other four S1P receptors."}, "S1P3 [1]": {"molecular_target": "T1, S1P3 (Homo sapiens, UniProt Q99500)", "T1 construct": "expressed in transfected cells", "T1 sequence (Q99500 whole entry)": "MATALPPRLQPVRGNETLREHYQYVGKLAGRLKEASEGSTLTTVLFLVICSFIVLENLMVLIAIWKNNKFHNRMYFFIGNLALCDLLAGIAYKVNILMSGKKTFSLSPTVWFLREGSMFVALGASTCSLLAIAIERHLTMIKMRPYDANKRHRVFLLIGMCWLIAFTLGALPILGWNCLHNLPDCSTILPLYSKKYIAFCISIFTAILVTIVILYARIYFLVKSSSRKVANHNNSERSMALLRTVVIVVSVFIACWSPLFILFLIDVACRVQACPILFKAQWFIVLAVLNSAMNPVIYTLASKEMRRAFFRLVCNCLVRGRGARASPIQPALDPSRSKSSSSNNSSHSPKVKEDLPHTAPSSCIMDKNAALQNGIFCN", "test": "Calcium mobilization assay, CHO cells expressing S1P3", "assay_type": "cell-based", "text": "(§2) Human S1P1 (GenBank™ accession number M31210) and S1P3 (GenBank™ accession number X83864) cDNA containing the myc sequence in front to the human S1P1 and S1P3 sequences are inserted in the pcDNA 3.1 vector. The vectors are sequenced to completion to confirm the correctness of the construct. The human S1P2 (GI: 4090955, TREMBL: 0195136) is cloned by a PCR based method. Lung cDNA (marathon cDNA) is obtained (BD Biosciences Chontech, Palo Alto, Calif. 94303, USA). […] The amplified product of around 1100 bp is analyzed by standard agarose gel-electrophoresis. […]\nCHO cells are plated in black Costar plate (96 or 384 well, 50,000 cells or 12,500 cells, respectively) in a MEM with FCS and cultured for 20-24 h at 37° C. in a CO2 incubator. […] After measuring the baseline for 40 sec, the agonist in HBSS is added and the fluorescence is measured at intervals of 2 sec for 3 to 5 min. […]\nas §1"}, "S1P3 [2]": {"molecular_target": "T1, S1P3", "test": "GTPγS binding assay, S1P3", "assay_type": "biochemical", "details": "CHO cells expressing S1P3", "text": "as §2, with “USA). Following oligonucleotides are used for the PCR reaction: forward primer CACCATGGGCAGCTTGTACTCGGAGTACCT GM CCC CAA CM GGT CCA G (1 to 45, GenBank™ accession number AF034780) and reverse primer 5′-GATTCAGACCACCGTGTTGCCCTCCAG (1062 to 1039, GenBank™ accession number AF034780), the initiation of the translation (ATG) and the stop codon are underlined.” for “USA).”\nMembrane proteins are prepared from wild type CHO-K1 and the CHO cell clones expressing human S1P4. […] The protein concentration is determined using the Bio Rad Protein Assay and human IgG as standard. […]"}}, "data": [{"smiles": "NC(CNC(=O)c1cc2c(-c3ccccc3Cc3ccccc3)cccc2[nH]1)C(=O)O", "note": "(stereo not drawn) [Example 2]", "values": [{"measurement": "EC50", "setting": "CHO", "value": "> 6", "unit": "µM"}, {"measurement": "EC50", "setting": "S1P3 [1]", "value": "> 6", "unit": "µM"}, {"measurement": "EC50", "setting": "S1P3 [2]", "value": "> 10", "unit": "µM"}]}]}
